Experimental data from article PMC4879574, “Identification of Leishmania donovani Topoisomerase 1 inhibitors via intuitive scaffold hopping and bioisosteric modification of known Top 1 inhibitors” (Scientific Reports, 2016).
Values joined by “and” are separate entries in the source; they are usually repeats but may differ in a detail not shown here. Equal entries are not always repeated. Where two headings read alike, the source gives them in different places. Blank lines part the entries; values can stand above or below the compound they belong to.

What was measured:
[1] = molecular target: Leishmania donovani Topoisomerase 1 (LdTop1) (Leishmania donovani, UniProt A0A3Q8IHS4+Q8WQM6); assay: Plasmid DNA relaxation assay, LdTop1 (simultaneous incubation); assay type: biochemical
Procedure: (§1) To investigate the inhibitory effect of our library compounds on the DNA relaxation activity of the recombinant Human and Leishmania topoisomerase 1 (Table 2), assays were performed involving supercoiled plasmid DNA, the enzymes (HTop1 and LdTop1) and our molecules. The enzymes were purified by the standard literature procedure.
All the experiments were conducted thrice and representative data from once set of them are expressed as mean ± SD.
(§2) The type I DNA topoisomerase are assayed by decreased mobility of the relaxed isomers of supercoiled pBS (SK^+) [pBlue-script (SK^+)] DNA in agarose gel. The relaxation assay was carried out as described previously with LdTop1B and HTop I, diluted in the relaxation buffer (25 mM Tris–HCl, pH 7.5, 5% glycerol, 0.5 mM DTT, 10 mM MgCl2, 50 mM KCl, […] and […] BSA) and supercoiled plasmid pBS (SK^+) DNA (85–95% were negatively supercoiled, with remainder being nicked circles)[9][28][29]. The reconstituted enzyme LdTop1B was assayed at 50 mM KCl concentration as described before. For all kinetic studies, the reaction mixtures containing the buffer and DNA were heated to 37 °C before addition of the enzymes. The reactions were rapidly quenched using stop solution and kept on ice. The gels were stained with ethidium bromide (EtBr) ([…]) and the amount of supercoiled monomer DNA band fluorescence were quantified by integration using Gel Doc 2000 under UV illumination (Bio-Rad Quantity One Software), as described previously.
Cells harvested from 1 litre of culture were separately lysed by lysozyme/sonication, and the proteins were purified through Ni-NTA (Ni^2+-nitriloacetate-agarose column (Qiagen, Hilden, Germany) followed by a phospho-cellulose column (P11 cellulose; Whatman, Maidstone Kent, UK) as described previously. Finally, the purified proteins LdTOP1L and LdTOP1S were stored at −70 °C. The concentrations of each protein were quantified by using Bradford Reagent (PIERCE, Thermo Fisher Scientific Inc., Rockford, USA). Purified LdTOP1L was mixed with purified LdTOP1S at a molar ratio of 1:1 to a total protein concentration of 0.5 mg/ml in reconstitution buffer [50 mM potassium phosphate, pH 7.5, 0.5 mM DTT, 1 mM EDTA, 0.1 mM PMSF and 10% (v/v) glycerol]. The mixture was dialyzed overnight at 4 °C and dialyzed fractions were used for plasmid relaxation activity.

Human Top1 (HTop1) = molecular target: T1, Human Top1 (HTop1) (Homo sapiens, UniProt P11387); assay: Plasmid DNA relaxation assay, HTop1; assay type: biochemical; settings: averages of three experiments, read-out: HTop1 inhibition (EC50)
T1 construct: made in house; host or cells: Sf-9 insect cells infected with recombinant baculovirus (gift from Prof. J. J. Champoux)
T1 sequence (P11387 1-765): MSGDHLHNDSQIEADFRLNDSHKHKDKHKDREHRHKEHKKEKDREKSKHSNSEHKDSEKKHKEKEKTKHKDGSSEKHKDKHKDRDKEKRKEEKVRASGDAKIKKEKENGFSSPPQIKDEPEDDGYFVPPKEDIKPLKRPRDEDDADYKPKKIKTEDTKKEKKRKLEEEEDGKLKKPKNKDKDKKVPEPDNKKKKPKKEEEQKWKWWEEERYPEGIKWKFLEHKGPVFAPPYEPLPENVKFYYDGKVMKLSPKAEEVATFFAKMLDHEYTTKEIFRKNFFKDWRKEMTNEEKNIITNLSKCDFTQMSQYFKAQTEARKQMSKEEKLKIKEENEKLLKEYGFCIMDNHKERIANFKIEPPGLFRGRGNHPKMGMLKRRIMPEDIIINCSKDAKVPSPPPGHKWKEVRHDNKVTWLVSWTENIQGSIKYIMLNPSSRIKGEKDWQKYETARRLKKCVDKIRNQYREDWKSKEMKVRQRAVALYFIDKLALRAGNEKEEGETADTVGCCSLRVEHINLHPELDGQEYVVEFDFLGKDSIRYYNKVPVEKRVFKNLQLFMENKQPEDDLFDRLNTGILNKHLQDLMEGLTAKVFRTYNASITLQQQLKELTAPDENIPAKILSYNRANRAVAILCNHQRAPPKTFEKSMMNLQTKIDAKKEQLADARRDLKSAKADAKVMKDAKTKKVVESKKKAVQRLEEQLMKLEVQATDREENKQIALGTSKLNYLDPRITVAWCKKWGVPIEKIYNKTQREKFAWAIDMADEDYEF
Procedure: as §1, §2
The wild-type HTop1 (91 kDa) was purified from Sf-9 insect cells infected with the recombinant baculovirus (a kind gift from Prof. J. J. Champoux). Approximately, 1 * 10^9 Sf-9 cells were infected with the recombinant virus, and cells were harvested after 48-h of infection. The cells were lysed and enzyme was purified as described. Briefly, at 48 h post-infection, approximately 3 * 10^9 Sf-9 cells were harvested by centrifugation for 5 min at 400 * g. The cells were resuspended in 1 liter of ice-cold phosphate-buffered saline and centrifuged for 5 min at 400 * g. The nuclei were washed twice in 80 ml of lysis buffer minus Triton X-100 and resuspended in 40 ml of resuspension buffer (50 mM KCl, 10 mM Tris-Cl, pH 7.5, 2 mM MgCl2, 25 mM DTT, 0.4 mg/ml phenylmethylsulfonyl fluoride, 0.12 mg/ml aprotinin). The nuclear extract was stirred for 5 min at ~200 rpm. With continued stirring, 50 ml of polyethylene glycol (PEG) buffer (18% PEG 8000, 1 M NaCl, 10% glycerol) was added dropwise in order to precipitate the DNA. The PEG precipitate was pelleted by centrifugation and the resulting PEG supernatant was dialyzed against 4 liters of potassium phosphate buffer. The dialyzed PEG supernatant passed over a 10-ml bed volume of phosphocellulose (Whatman P11) equilibrated with PPB. The HTop1 flowed through the PS column and then passed over a Mono Q column followed by loaded onto a Mono S column. The Mono S column was eluted with a 25-ml 50–200 mM KPO4, pH 7.4, gradient. […] The peak Mono S fractions were pooled, concentrated with an Amicon ultrafiltration cell, dialyzed into storage buffer (50% glycerol, 10 mM Tris-hydrochloride, pH 7.5, 1 mM DTT, 1 mM EDTA), and stored at −20 °C.

[2] = LdTop1 relaxation, 12.5 uM, read-out: % inhibition, mean data
[3] = LdTop1 relaxation, 25 uM, read-out: % inhibition, mean data
[4] = LdTop1 relaxation, 50 uM, read-out: % inhibition, mean data
[5] = LdTop1 relaxation, 100 uM, read-out: % inhibition, mean data
[6] = plasmid DNA relaxation, averages of three experiments, read-out: LDTop1 inhibition (EC50)
[7] = read-out: % inhibition (CPT 100%), data 1, LdTop1 relaxation, 12.5 uM
[8] = read-out: % inhibition (CPT 100%), data 1, LdTop1 relaxation, 25 uM
[9] = read-out: % inhibition (CPT 100%), data 1, LdTop1 relaxation, 50 uM
[10] = read-out: % inhibition (CPT 100%), data 1, LdTop1 relaxation, 100 uM
[11] = read-out: % inhibition (CPT 100%), data 2, LdTop1 relaxation, 12.5 uM
[12] = read-out: % inhibition (CPT 100%), data 2, LdTop1 relaxation, 25 uM
[13] = read-out: % inhibition (CPT 100%), data 2, LdTop1 relaxation, 50 uM
[14] = read-out: % inhibition (CPT 100%), data 2, LdTop1 relaxation, 100 uM
[15] = supplement sheet Ld Top 1 data, concentrations in uM, read-out: EC50 (LdTop1, supplement sheet)

Sequence of Leishmania donovani Topoisomerase 1 (LdTop1) (Q8WQM6 entry or part of it): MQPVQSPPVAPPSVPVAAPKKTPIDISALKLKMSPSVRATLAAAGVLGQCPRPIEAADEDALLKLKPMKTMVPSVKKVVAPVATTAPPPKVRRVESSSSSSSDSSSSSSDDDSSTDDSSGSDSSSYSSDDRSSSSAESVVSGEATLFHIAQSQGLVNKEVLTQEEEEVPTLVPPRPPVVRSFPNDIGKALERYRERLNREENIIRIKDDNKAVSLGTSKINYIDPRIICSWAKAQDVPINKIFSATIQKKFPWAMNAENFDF
Sequence of Leishmania donovani Topoisomerase 1 (LdTop1) (A0A3Q8IHS4 entry or part of it): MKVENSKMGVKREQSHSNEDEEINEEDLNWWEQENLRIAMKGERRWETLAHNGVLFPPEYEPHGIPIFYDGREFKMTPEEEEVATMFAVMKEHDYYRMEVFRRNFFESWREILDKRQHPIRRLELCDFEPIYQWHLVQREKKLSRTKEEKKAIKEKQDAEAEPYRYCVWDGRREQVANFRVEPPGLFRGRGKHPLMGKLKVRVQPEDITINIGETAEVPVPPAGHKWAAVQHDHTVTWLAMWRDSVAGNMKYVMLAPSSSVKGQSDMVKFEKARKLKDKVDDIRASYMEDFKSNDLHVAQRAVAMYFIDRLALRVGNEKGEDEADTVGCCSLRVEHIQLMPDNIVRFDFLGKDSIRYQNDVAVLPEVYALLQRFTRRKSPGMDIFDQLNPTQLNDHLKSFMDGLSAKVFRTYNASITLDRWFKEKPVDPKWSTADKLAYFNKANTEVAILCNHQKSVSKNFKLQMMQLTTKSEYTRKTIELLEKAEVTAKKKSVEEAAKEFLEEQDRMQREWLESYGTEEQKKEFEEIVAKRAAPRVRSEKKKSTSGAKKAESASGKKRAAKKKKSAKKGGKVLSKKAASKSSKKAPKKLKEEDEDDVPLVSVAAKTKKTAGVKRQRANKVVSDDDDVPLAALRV

- LdTop1 inhibitory activity ([1]; plasmid DNA relaxation): complete loss of activity
- EC50 [1, 6]: > 100 µM
- EC50 (Human Top1 (HTop1)): > 100 µM
SMILES: Cc1cc2c(c(=O)[nH]1)C(=O)O/C2=C\c1ccc(F)c(F)c1 [Compound 8]

- inhibition at 12.5 µM [1, 2]: 52.2%
- inhibition at 25 µM [1, 3]: 68.2%
- inhibition at 50 µM [1, 4]: 88.4%
- inhibition at 100 µM [1, 5]: 93%
- LdTop1 inhibitory activity ([1]; plasmid DNA relaxation): considerable activity
- EC50 [1, 6]: 7.51 ± 1.02 µM
- inhibition at 12.5 µM [1, 7]: 52.9%
- inhibition at 25 µM [1, 8]: 69.6%
- inhibition at 50 µM [1, 9]: 89.7%
- inhibition at 100 µM [1, 10]: 95.5%
- inhibition at 12.5 µM [1, 11]: 51.4%
- inhibition at 25 µM [1, 12]: 66.8%
- inhibition at 50 µM [1, 13]: 87.2%
- inhibition at 100 µM [1, 14]: 90.5%
- EC50 [1, 15]: 7.51 µM
- EC50 (Human Top1 (HTop1)): > 100 µM
SMILES: Cc1cc2c(c(=O)[nH]1)C(=O)O/C2=C\c1cccc(Br)c1 [Compound 9]

- EC50 [1, 6]: > 100 µM
- EC50 (Human Top1 (HTop1)): > 100 µM
SMILES: Cc1cc2c(c(=O)[nH]1)C(=O)O/C2=C\c1ccc(Br)cc1 [Compound 10]

The next lines start with the compound.

SMILES: COc1ccc(/C=C2\OC(=O)c3c2cc(C)[nH]c3=O)c(C)c1C [Compound 2]
- inhibition at 12.5 µM [1, 2]: 50.1%
- inhibition at 25 µM [1, 3]: 65.2%
- inhibition at 50 µM [1, 4]: 85.1%
- inhibition at 100 µM [1, 5]: 99.5%
- LdTop1 inhibitory activity ([1]; plasmid DNA relaxation): considerable activity
- EC50 [1, 6]: 10 µM and 10.1 µM
- inhibition at 12.5 µM [1, 7]: 50.1%
- inhibition at 25 µM [1, 8]: 66.8%
- inhibition at 50 µM [1, 9]: 85.8%
- inhibition at 100 µM [1, 10]: 100%
- inhibition at 12.5 µM [1, 11]: 50.1%
- inhibition at 25 µM [1, 12]: 63.7%
- inhibition at 50 µM [1, 13]: 84.4%
- inhibition at 100 µM [1, 14]: 98.9%
- EC50 [1, 15]: 10.2 µM
- EC50 (Human Top1 (HTop1)): > 100 µM

SMILES: Cc1cc2c(c(=O)[nH]1)C(=O)O/C2=C\c1ccccc1C(F)(F)F [Compound 3]
- inhibition at 12.5 µM [1, 2]: 52.5%
- inhibition at 25 µM [1, 3]: 67.3%
- inhibition at 50 µM [1, 4]: 87.5%
- inhibition at 100 µM [1, 5]: 91.3%
- LdTop1 inhibitory activity ([1]; plasmid DNA relaxation): considerable activity
- EC50 [1, 6]: 9.06 ± 1.77 µM
- inhibition at 12.5 µM [1, 7]: 51.2%
- inhibition at 25 µM [1, 8]: 68.8%
- inhibition at 50 µM [1, 9]: 88.7%
- inhibition at 100 µM [1, 10]: 93.7%
- inhibition at 12.5 µM [1, 11]: 53.7%
- inhibition at 25 µM [1, 12]: 65.8%
- inhibition at 50 µM [1, 13]: 86.2%
- inhibition at 100 µM [1, 14]: 88.9%
- EC50 [1, 15]: 9.06 µM
- EC50 (Human Top1 (HTop1)): > 100 µM

SMILES: Cc1cc2c(c(=O)[nH]1)C(=O)O/C2=C\c1c[nH]c2ccccc12 [Compound 5]
- LdTop1 inhibitory activity ([1]; plasmid DNA relaxation): no inhibitory activity at all
- EC50 [1, 6]: > 100 µM
- EC50 (Human Top1 (HTop1)): > 100 µM

SMILES: Cc1cc2c(c(=O)[nH]1)C(=O)O/C2=C\c1ccc2c(c1)OCO2 [Compound 6]
- LdTop1 inhibitory activity ([1]; plasmid DNA relaxation): complete loss of activity
- EC50 [1, 6]: > 100 µM
- EC50 (Human Top1 (HTop1)): > 100 µM

SMILES: Cc1cc2c(c(=O)[nH]1)C(=O)O/C2=C\c1cccc2ccccc12 [Compound 11]
- LdTop1 inhibitory activity ([1]; plasmid DNA relaxation): no inhibitory activity at all
- EC50 [1, 6]: > 100 µM
- EC50 (Human Top1 (HTop1)): > 100 µM
